In patent US12552797B2, “Process for making (3-[cyclopropylethoxy(difluoro)methyl]-6-6[5-fluoro-6-(2,2,2-trifluoroethoxy-3-pyridyl]- [1,2,4]triazolo[4,3-a]pyrazine” (Praxis Precision Medicines, Inc., priority 2019, dated 2026):

Legend:
[1] = Phase 1 single/multiple ascending dose and food effect trial in healthy volunteers: safety and tolerability; type: in vivo, human
Text: This is a three-part clinical trial to evaluate the safety, tolerability, PK, and food effect of Compound 1 in healthy volunteers aged 18 to 55 years inclusive. The clinical trial is comprised of the following 3 parts: • Part A is randomized, double-blinded and placebo-controlled. Part A is designed to investigate the safety and PK of single ascending doses of Compound 1. • Part B is randomized, double-blinded and placebo-controlled. […]
Dosing in each dose level cohort starts with 2 sentinel participants with one of the 2 participants randomized to receive Compound 1 and the other participant randomized to receive placebo. The safety and tolerability of each sentinel participant are monitored until Day 6 and reviewed prior to dosing the remainder of participants in each cohort. […]
(§1) A dose level is evaluated in Part B if determined to be safe and tolerable in Part A. It is anticipated that 3 dose levels are evaluated in Part B in a total of 3 cohorts (Cohorts B1-B3). […]
as §1

[2] = Phase 1 single/multiple ascending dose and food effect trial in healthy volunteers: pharmacokinetics (plasma, urine); type: in vivo, human
Text: This is a three-part clinical trial to evaluate the safety, tolerability, PK, and food effect of Compound 1 in healthy volunteers aged 18 to 55 years inclusive. The clinical trial is comprised of the following 3 parts: • Part A is randomized, double-blinded and placebo-controlled. Part A is designed to investigate the safety and PK of single ascending doses of Compound 1. • Part B is randomized, double-blinded and placebo-controlled. Part B is designed to investigate the safety and PK of multiple ascending doses of Compound 1 (selected based on the results from Part A). • Part C is a randomized, open-label, crossover design to investigate the PK of a single dose of Compound 1 in the fasted and fed state. Objectives and Endpoints: Part A
(§2) Part C may commence once the safety and PK have been adequately evaluated in the last cohort of Part A. Up to 16 participants receive two doses of Compound 1, one dose after a minimum of 10 hours fasting and one after consumption of a high-fat, high calorie meal in a randomized crossover design, with a 7 day washout in between periods. Up to 3 additional days of washout may be added between fasted and fed dosing based on the observed half-life in Part A.
A validated bioanalytical method is utilized for the determination of plasma and urine concentrations of Compound 1. Plasma and urine concentrations are summarized by dose group/condition and timepoint using descriptive statistics. In addition to descriptive statistics specified in General Conditions above, plasma concentrations are also summarized using number and percentage of concentrations below the level of quantification (BLQ) and coefficient of variation (CV %).
Pharmacokinetic parameters are estimated from concentration-time data using standard non-compartmental methods. Urine PK parameters are estimated from urine concentration and urine volume data. PK parameters are summarized by dose group/condition using descriptive statistics. In addition to descriptive statistics specified in General Conditions above, PK parameters are summarized using CV %, geometric mean, and geometric coefficient of variation. PK parameters are assessed for linearity and dose proportionality using the power model where feasible. To test for a food effect in Part C, the geometric mean ratio (In transformed) of the test treatment (ie, fed condition) relative to the reference treatment (ie, fasted condition) are estimated with the 90% CIs calculated for Cmax and AUC0-inf. […]
as §2, with “Participants” for “Up to 16 participants”, “Up to 3 additional days of washout may be added between fasted and fed dosing based on the observed half-life in Part A.” left out

time to maximal concentrations ([2]; healthy volunteers, oral capsules, fasted, preliminary data): 2 to 3 h
exposure versus dose level ([2]; healthy volunteers, preliminary data): increase proportionate to dose level
half-life ([2]; human, plasma, oral, average across groups, healthy volunteers, preliminary data, read-out: Terminal elimination half-life (converted)): 114 h
time to 90% of steady-state ([2]; once daily dosing): approximately 2 weeks
SMILES: CCOC(F)(F)c1nnc2cnc(-c3cnc(OCC(F)(F)F)c(F)c3)cn12 [Compound 1, 3-(ethoxydifluoromethyl)-6-(5-fluoro-6-(2,2,2-trifluoroethoxy)pyridin-3-yl)-[1,2,4]triazolo[4,3-a]pyrazine]
tolerability ([1]; Part A single ascending doses, first four of six planned cohorts, preliminary analysis): well tolerated
Serious Adverse Events, severe Adverse Events, or Adverse Events leading to study withdrawal or discontinuation ([1]; Part A, first three cohorts tested): no reported
